The subject of data set [1] is T98G cells. In words: Combination cytotoxicity with mitochondrial complex I inhibitors (% cell survival). The source says:
Example 2: Gnetin H In Combination with Mitochondrial Complex I Inhibitors. […] The plus signs above the combination treatment bars indicates the value of % cell survival if the anti-proliferative effect was additive.
In FIGS. 9 A-B., the plus signs are placed above the combination treatment bars at the % cell survival value if the anti-proliferative effect was additive. […] Both T98G and MDA-MB-231 cells lack functional p53 but B16 are p53 wild type.
Example 4: Peony Seed extract. […] T98G cells were treated with different concentrations of purified GH (numbers indicate μM) or PSE (numbers indicate μg/ml) alone or in combination with a Paw Paw (PP) extract (2 μg/ml) for 48 hrs (FIG. 12 A). The plus signs are placed above the combination treatment bars at the % cell survival value if the anti-proliferative effect was additive. […] T98G cells were treated with different concentrations of purified GH or PSE in combination with a Paw Paw extract (2 μg/ml) for 48 hrs (FIG. 12 B).

In data set [2] the test system is T98G human glioblastoma cells. Description: Lactic acid accumulation in cell culture medium. The data set is classed as cell-based. As to conditions: three hour period; for inhibition of lactic acid production (accumulation): different concentrations, FIG. 6, FIG. 7.
Source text: Acidification of the cell culture medium occurs because of the enhanced use of glycolysis by transformed cells (and resulting increase in lactic acid production). This led us to investigate whether GH reduced lactic acid levels in the cell culture medium.
Data set [3] has as its system TXNIP protein levels. In words: Western blot of TXNIP protein, MDA-MB-231 cell line. It counts as cell-based, human. As to conditions: FIG. 16, FIG. 18; for TXNIP protein levels, agent alone: GH 8 μM 6 hrs or 3 hrs, 2-DG 25 mM, OXA 25 mM, BPX 25 μM, DCA 25 mM, 6 hr. The source says:
(§1) AMPK activation has been previously shown to phosphorylate and cause the degradation of TXNIP during energy stress (13).

Data set [4] deals with TXNIP protein levels. Description: Western blot of TXNIP protein, T98G cell line. As to conditions: FIG. 15, FIG. 17; for TXNIP protein levels, agent alone: GH 8 μM 6 hrs or 3 hrs, 2-DG 25 mM, OXA 25 mM, BPX 25 μM, DCA 25 mM, 6 hr. The data set is classed as cell-based, human.
Source text: as §1
(A western blot detects proteins with antibodies after separation by electrophoresis.)

The next data set deals with ARRDC4 mRNA. Description: Differential gene expression analysis (RNA-Seq) in T98G cells. The data set is classed as cell-based, human. Conditions: 2 hours, GH 8 μM, 2-DG 25 mM, Ph 100, minus = reduced, plus = increase, NC = no change. The source says: (§2) GH inhibits expression of TXNIP and ARRDC4 mRNAs. […] Since the transcription factors (MondoA/Mlx complex) regulating the expression of the TXNIP gene is thought to be controlled by intermediates in the upper portion of the glycolytic pathway (12), GH may be negatively impacting this portion of glycolysis. Reduction in the levels of these intermediates by GH would prevent activation of the MondoA/Mlx transcription complex and would result in suppression of TXNIP transcription and TXNIP mRNA levels. Both of these gene products (TXNIP and ARRDC4) are thought to suppress glucose transport by enhancing degradation of glucose transporters (12).

Data set [5] deals with B16 cells. In words: Lactic acid export (intracellular lactic acid levels). It counts as cell-based, mouse. As to conditions: 3 hours, FIG. 4. As for the experimental part: To prevent the buildup of lactic acid within the cell a family of monocarboxylate transporters (MCT) functions to transport lactic acid out of the cell (10). To determine if GH inhibits lactic acid export from the cell, and in this manner inhibits the accumulation of lactic acid in the cell culture medium, intracellular lactic acid levels were measured. If GH inhibited lactic acid export, treatment of cells with GH would result in the increase in intracellular lactic acid levels. As a positive control the MCT1 inhibitor AZD3965 was used.

For the next data set, the system named is TXNIP mRNA. In words: Differential gene expression analysis (RNA-Seq) in T98G cells. Conditions: 2 hours, GH 8 μM, 2-DG 25 mM, Ph 100, minus = reduced, plus = increase, NC = no change. The data set is classed as cell-based, human.
Source text: as §2

Data set [6] has as its system B16 cells. In words: Glucose transport (2-NBDG accumulation). It counts as cell-based, mouse. As to conditions: B16, treated for one hour followed by 2-NBDG for one hour.
For data set [7], the system named is T98G cells. Description: Glucose transport (2-NBDG accumulation). The data set is classed as cell-based, human. Conditions: treated for one hour followed by 2-NBDG for one hour.
For a further data set, the system named is MDA-MB-231 cells. Description: Glucose transport (2-NBDG accumulation). As to conditions: MDA-MB-231, treated for one hour followed by 2-NBDG for one hour. The data set is classed as cell-based, human. The source says:
Phloretin, a known glucose transport inhibitor, was used as a positive control. Accumulation of 2-NDGB was inhibited by phloretin by 54% in T98G cells, by 31% in B16 cells and by 74% in MDA-MB-231 cells. The first panel for each cell line represents unstained cells, the second stained with 2-NBDG for one hour, the third treated with GH for one hour followed by 2-NBDG for one hour and the fourth treated with phloretin for one hour followed by 2-NBDG for one hour.

Turning to `Oc1ccc(/C=C/c2cc(O)cc3c2[C@@H](c2cc(O)cc(O)c2)[C@H](c2ccc(O)cc2)O3)cc1` (relative stereo) [Vin, trans-ε viniferin, reference compound], the “synergistic cytotoxicity in combination with phenformin (Ph) at 100 μM” value in the data set on T98G cells [1] is “did not mimic GH activity”. In addition, the “inhibition of lactic acid production” value in data set [2] (40 μM, FIG. 6) came out at 40%.

For `O=CC[C@@H](O)[C@H](O)[C@H](O)CO` [2-DG, 2-deoxyglucose], in the data set on T98G cells [1], the “synergistic cytotoxicity in combination with phenformin (Ph) at 100 μM” value is “not synergistically cytotoxic”. For the same compound, in the data set with TXNIP protein levels [3], the “TXNIP protein levels, in combination with Ph” value (shortened to “TXNIP protein levels … with Ph”) is listed as “reduction of TXNIP protein levels” and the “TXNIP protein levels, agent alone” value is “increased TXNIP protein levels”. Besides, in the data set on TXNIP protein levels [4], the “TXNIP protein levels … with Ph” value is reported as “reduction of TXNIP protein levels” and the “TXNIP protein levels, agent alone” value is recorded as “increased TXNIP protein levels”. In addition, in the data set with ARRDC4 mRNA, the “ARRDC4 mRNA fold change” value is “+3 fold”.

As for `Cc1[nH]nc(C(F)(F)F)c1Cc1sc2c(c1C(=O)N1C[C@](C)(O)CO1)c(=O)n(C)c(=O)n2C(C)C` [AZD3965, reference compound], the “accumulation of intracellular lactic acid above control values” in the data set on B16 cells [5] is reported as ~4 fold.

Consider `O=C(O)C(=O)CBr` [BPX, 3-bromopyruvate], for which, in the data set with TXNIP protein levels [3], the “TXNIP protein levels … with Ph” value is given as “reduced TXNIP protein levels” and the “TXNIP protein levels, agent alone” value is “do not substantially reduce TXNIP protein levels”. Also, in the data set on TXNIP protein levels [4], the “TXNIP protein levels … with Ph” value is listed as “reduced TXNIP protein levels” and the “TXNIP protein levels, agent alone” value was “do not substantially reduce TXNIP protein levels”.

Regarding `CC(=O)N[C@@H](CS)C(=O)O` [NAC, n-acetylcysteine], the “inhibition of lactic acid production (accumulation)” value in [2] is “did not inhibit lactic acid production”.

For the compound `[H]/N=C(/N)N/C(=N/[H])NCCc1ccccc1` [Ph, phenformin, reference compound], the “TXNIP mRNA fold change” value with TXNIP mRNA was −2.5 fold.

For the compound `Oc1ccc(C=Cc2cc(O)cc(O)c2)cc1` [Res, Resveratrol], the “inhibition of lactic acid production (accumulation)” value in [2] is on record as “did not inhibit lactic acid production”.

`O=C(CCc1ccc(O)cc1)c1c(O)cc(O)cc1O` [phloretin, Phloretin, reference compound]: the results for the “inhibition of accumulation of 2-NBDG” value in the data set with B16 cells [6], in the data set with T98G cells [7] and in the data set with MDA-MB-231 cells were 31%, 54% and 74%, respectively.

The values above are taken from patent US20220079912A1, “ANTICANCER FORMULATION” (University of Mississippi, priority 2018, published 2022).
